Experimental data: patent US20090246134A1, “COMPOSITIONS AND METHODS FOR MODULATING GATED ION CHANNELS” (PainCeptor Pharma Corporation, priority 2007, published 2009)

Target: T1, ASIC1a (Homo sapiens, UniProt P78348)
T1 sequence (P78348 1-528): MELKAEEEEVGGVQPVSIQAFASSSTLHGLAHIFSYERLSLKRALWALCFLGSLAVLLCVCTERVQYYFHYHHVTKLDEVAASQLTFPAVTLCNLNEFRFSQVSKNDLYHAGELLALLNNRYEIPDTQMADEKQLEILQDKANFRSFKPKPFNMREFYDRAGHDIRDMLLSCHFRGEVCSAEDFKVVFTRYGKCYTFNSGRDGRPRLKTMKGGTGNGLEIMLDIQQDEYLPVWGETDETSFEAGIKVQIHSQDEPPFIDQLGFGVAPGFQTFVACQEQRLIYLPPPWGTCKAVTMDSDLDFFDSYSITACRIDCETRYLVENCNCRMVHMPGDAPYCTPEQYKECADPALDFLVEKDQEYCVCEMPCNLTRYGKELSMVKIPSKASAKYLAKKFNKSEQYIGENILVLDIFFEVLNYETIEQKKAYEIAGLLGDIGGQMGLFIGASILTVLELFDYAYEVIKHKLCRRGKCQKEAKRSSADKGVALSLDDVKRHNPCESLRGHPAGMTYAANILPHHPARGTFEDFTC
Experiment: Calcium-imaging (calcium mobilization, FLIPR) assay in ASIC1a expressing HEK293 cells
Format: cell-based
Set-up: host or cells: HEK293
Settings: n=3-7, compounds not radiolabelled
Experimental: ASIC1a expressing HEK293 cells are grown in culture medium (DMEM with 10% FBS), in polystyrene culture flasks ([…]) at 37° C. in a humidified atmosphere of 5% CO2. Confluency of cells should be 80-90% on day of plating. Cells are rinsed with 10 ml of PBS and re-suspended by addition of culture medium and trituration with a 25 ml pipette.
The cells are seeded at a density of approximately 1×10^6 cells/ml (100 μl/well) in black-walled, clear bottom, 96-well plates pre-treated with 10 mg/l poly-D-lysin (75 μl/well for ≧30 min). Plated cells were allowed to proliferate for 24 h before loading with dye.
Fluo-4/AM (1 mg, Molecular Probes) is dissolved in 912 μl DMSO. The Fluo-4/AM stock solution (1 mM) is diluted with culture medium to a final concentration of 2 μM (loading solution).
The culture medium is aspirated from the wells, and 50 μl of the Fluo-4/AM loading solution is added to each well. The cells are incubated at 37° C. for 30 min.
After the loading period, the loading solution is aspirated and the cells are washed twice with 100 μl modified Assay Buffer (145 mM NaCl, 5 mM KCl, 5 mM CaCl2, 1 mM MgCl2, 10 mM HEPES, pH 7.4) to remove extracellular dye. Following the second wash, 100 μl modified Assay Buffer is added to each well and the fluorescence is measured in FLIPR™ or FlexStation™ (Molecular Devices, USA), or any other suitable equipment known to the skilled in the art.
Temperature: Room temperature (20-22° C.)
First addition: 50 μl test solution at a rate of 30 μl/sec and a starting height of […]
Second addition: 50 μl MES solution (20 mM, 5 mM final concentration) at a rate of 35 μl/sec and a starting height of 150 μl.
Reading intervals: pre-incubation—10 sec×7 and 3 sec×3 antagonist phase—3 sec×17 and 10 sec×12
Addition plates (compound test plate and MES plate) are placed on the right and left positions in the FLIPR tray, respectively. Cell plates are placed in the middle position and the ASIC1a program is effectuated. FLIPR will then take the appropriate measurements in accordance with the interval settings above. Fluorescence obtained after stimulation is corrected for the mean basal fluorescence (in modified Assay Buffer).
The MES-induced peak calcium response, in the presence of test substance, is expressed relatively to the MES response alone. Test substances that block the MES-induced calcium response are re-tested in triplicates. Confirmed hits are picked for further characterization by performing full dose-response curves to determine potency of each hit compound as represented by the IC50 values (i.e., the concentration of the test substance which inhibits 50% of the MES-induced calcium response).
It is noted that the compounds below are not radiolabelled.

IC50: 700 nM
Compound: COc1ccc(F)cc1-c1cc2c(c3c1CCN(C)C3)NC(=O)C2=NO [Compound A, 5-(5-fluoro-2-methoxyphenyl)-6,7,8,9-tetrahydro-3-(hydroxyimino)-8-methyl-1H-pyrrolo[3,2-h]isoquinoline-2(3H)-one]
